Reference: ChEMBL document CHEMBL1201862, “PubChem BioAssay data set” (2004)
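These data come from cells grown in 96-well plates and exposed to compound for 48 hours at five concentrations. Abbreviation: GI50, concentration required for 50% inhibition of growth.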 Calls of active or inactive are those of the source. Cut-off read from the data, not from the text of the source: active = GI50 up to about 1.1 µM and inactive = higher.

Key:
Experiment in all cases: growth of human tumour cells (NCI), 48 h
A549 = system: A549
COLO 205 = system: COLO 205
HCC 2998 = system: HCC 2998
HCT-116 = system: HCT-116
HCT-15 = system: HCT-15
HOP-62 = system: HOP-62
IGROV-1 = system: IGROV-1
LOX IMVI = system: LOX IMVI
MCF7 = system: MCF7
MDA-MB-231 = system: MDA-MB-231
MDA-MB-435 = system: MDA-MB-435
MOLT-4 = system: MOLT-4
Malme-3M = system: Malme-3M
NCI/ADR-RES = system: NCI/ADR-RES
OVCAR-3 = system: OVCAR-3
OVCAR-5 = system: OVCAR-5
SF-539 = system: SF-539
SK-MEL-5 = system: SK-MEL-5
TK-10 = system: TK-10
NCI-H522 = system: NCI-H522

Row | SMILES | GI50 (A549) | GI50 (COLO 205) | GI50 (HCC 2998) | GI50 (HCT-116) | GI50 (HCT-15) [µM] | GI50 (HOP-62) | GI50 (IGROV-1) | GI50 (LOX IMVI) | GI50 (MCF7) | GI50 (MDA-MB-231) | GI50 (MDA-MB-435) | GI50 (MOLT-4) | GI50 (Malme-3M) | GI50 (NCI/ADR-RES) | GI50 (OVCAR-3) | GI50 (OVCAR-5) | GI50 (SF-539) | GI50 (SK-MEL-5) | GI50 (TK-10) | GI50 (NCI-H522)
1 | C1=CC2=CC=CC3c4nc5ccc6ccccc6c5nc4C(=C1)C23 (configuration not stated) | > 100 µM (inactive) | > 100 µM (inactive) | > 100 µM (inactive) | > 100 µM (inactive) | > 100 | > 100 µM (inactive) | > 100 µM (inactive) | > 100 µM (inactive) | > 100 µM (inactive) | > 100 µM (inactive) | > 100 µM (inactive) | > 100 µM (inactive) | > 100 µM (inactive) | > 100 µM (inactive) | > 100 µM (inactive) | > 100 µM (inactive) | > 100 µM (inactive) | > 100 µM (inactive) | > 100 µM (inactive) | 
2 | CCCCCCCCCCCCOCC(COP(=O)(O)OCCN=[N+]=[N-])OC(=O)CCCCCCCCCCC (configuration not stated) | > 100 µM (inactive) | > 100 µM (inactive) | > 100 µM (inactive) | > 100 µM (inactive) | > 100 | > 100 µM (inactive) |  |  | > 100 µM (inactive) | > 100 µM (inactive) | > 100 µM (inactive) | > 100 µM (inactive) | > 100 µM (inactive) | > 100 µM (inactive) | > 100 µM (inactive) | > 100 µM (inactive) | > 100 µM (inactive) | > 100 µM (inactive) | > 100 µM (inactive) | > 100 µM (inactive)
3 | O=C1COc2ccc([N+](=O)[O-])cc2C(=O)C1 | > 10 µM (inactive) | > 10 µM (inactive) | > 10 µM (inactive) | > 10 µM (inactive) | > 10 | > 10 µM (inactive) | > 10 µM (inactive) | > 10 µM (inactive) | > 10 µM (inactive) | > 10 µM (inactive) | > 10 µM (inactive) | > 10 µM (inactive) | > 10 µM (inactive) | > 10 µM (inactive) | > 10 µM (inactive) | > 10 µM (inactive) | > 10 µM (inactive) | > 10 µM (inactive) | > 10 µM (inactive) | 
4 | CC1=CC2C3(C)C(C)(C(C)=CP3(=O)c3c(C(C)C)cc(C(C)C)cc3C(C)C)C1P2(=O)c1c(C(C)C)cc(C(C)C)cc1C(C)C (configuration not stated) | 2.42 µM (inactive) | 1.6 µM (inactive) | 1.9 µM (inactive) | 1.75 µM (inactive) | 1.95 | 2.41 µM (inactive) | 1.98 µM (inactive) | 1.58 µM (inactive) | 2.26 µM (inactive) | 1.77 µM (inactive) | 1.85 µM (inactive) | 1.66 µM (inactive) | 2.17 µM (inactive) | 2.07 µM (inactive) | 1.75 µM (inactive) | 2.06 µM (inactive) |  | 1.48 µM (inactive) | 2.55 µM (inactive) | 2.4 µM (inactive)
5 | O=C(O)C1C(C(=O)O)C23CC2(C(=O)O)C2(C(=O)O)CCC3=C3CCCC312 (configuration not stated) | 6.34 µM (inactive) | 3.81 µM (inactive) |  | 6.85 µM (inactive) | 15.1 | 4.44 µM (inactive) | 7.93 µM (inactive) | 10.6 µM (inactive) | 11.7 µM (inactive) | 12.1 µM (inactive) | 7.73 µM (inactive) | 4.99 µM (inactive) | 4.21 µM (inactive) | 20.7 µM (inactive) | 2.5 µM (inactive) | 16.6 µM (inactive) | 4.67 µM (inactive) | 5.22 µM (inactive) | 11.1 µM (inactive) | 3.73 µM (inactive)
6 | CCCCNC(=O)C1=C(C)NC(C)=C(C(=O)NCCCC)C1 | > 100 µM (inactive) | > 100 µM (inactive) | > 100 µM (inactive) | > 100 µM (inactive) | > 100 | > 100 µM (inactive) | 61.1 µM (inactive) | > 100 µM (inactive) | > 100 µM (inactive) | > 100 µM (inactive) | > 100 µM (inactive) | > 100 µM (inactive) |  | > 100 µM (inactive) | > 100 µM (inactive) | > 100 µM (inactive) | > 100 µM (inactive) | 89.7 µM (inactive) | > 100 µM (inactive) | 
7 | OCC1OC(c2ccccc2)CC1O (configuration not stated) | > 100 µM (inactive) | > 100 µM (inactive) |  | > 100 µM (inactive) | > 100 |  | > 100 µM (inactive) | > 100 µM (inactive) | > 100 µM (inactive) | > 100 µM (inactive) | > 100 µM (inactive) | > 100 µM (inactive) |  | > 100 µM (inactive) | > 100 µM (inactive) | > 100 µM (inactive) | > 100 µM (inactive) | > 100 µM (inactive) | > 100 µM (inactive) | 
8 | COc1cc(O)c2c(c1)OCC1(Cc3cc(OC)c(OC)cc31)C2=O (configuration not stated) | 19.5 µM (inactive) | 90.2 µM (inactive) |  | 86.1 µM (inactive) | > 100 | > 100 µM (inactive) | > 100 µM (inactive) | 89.3 µM (inactive) | 31.8 µM (inactive) | 83 µM (inactive) | 29 µM (inactive) | 47.3 µM (inactive) | 87.7 µM (inactive) | 88.9 µM (inactive) | 34 µM (inactive) | > 100 µM (inactive) | > 100 µM (inactive) | 2.37 µM (inactive) | > 100 µM (inactive) | 84.9 µM (inactive)
9 | CS(=O)(=O)Nc1ccc(NCc2c[nH]c3ccc4ncccc4c23)cc1 | 43.4 µM (inactive) | 18.6 µM (inactive) |  | 20.3 µM (inactive) | 27.2 | 36.5 µM (inactive) | 48.6 µM (inactive) | 26.4 µM (inactive) | 23.1 µM (inactive) | 27.4 µM (inactive) | 16.9 µM (inactive) | 13.6 µM (inactive) | 23.7 µM (inactive) | > 100 µM (inactive) | 31.1 µM (inactive) | 40.3 µM (inactive) | 24.8 µM (inactive) | 14.9 µM (inactive) | 25.6 µM (inactive) | 18.5 µM (inactive)
10 | CC1(C)CO[P@@](=S)(c2ccccn2)O[C@@H]1c1ccccc1 | > 100 µM (inactive) | > 100 µM (inactive) | > 100 µM (inactive) | 93.3 µM (inactive) | 94.4 | > 100 µM (inactive) | > 100 µM (inactive) | > 100 µM (inactive) | > 100 µM (inactive) | > 100 µM (inactive) | > 100 µM (inactive) | 44.5 µM (inactive) | > 100 µM (inactive) | 75 µM (inactive) | 18.7 µM (inactive) | > 100 µM (inactive) |  | 95.1 µM (inactive) | > 100 µM (inactive) | 70.8 µM (inactive)
11 | C/C(N)=C/C(=O)c1[nH]c(C(=O)O)cc1C1CCN(Cc2ccccc2)C1=O (configuration not stated) | 34.4 µM (inactive) | 23.9 µM (inactive) | 52.7 µM (inactive) | 22.2 µM (inactive) | 29.9 | 18.4 µM (inactive) | 27.2 µM (inactive) |  | 24.2 µM (inactive) | 41.1 µM (inactive) | 40.6 µM (inactive) | 24.4 µM (inactive) | 18.8 µM (inactive) | 19.9 µM (inactive) | 20.6 µM (inactive) | 30.2 µM (inactive) |  | 15.3 µM (inactive) | 38.5 µM (inactive) | 20.6 µM (inactive)
12 | Fc1cccc(Cl)c1C1SCc2nc3cc4ccccc4cc3n21 (configuration not stated) | > 100 µM (inactive) | > 100 µM (inactive) | > 100 µM (inactive) | 68.5 µM (inactive) | > 100 | 35 µM (inactive) | 46.9 µM (inactive) | > 100 µM (inactive) | > 100 µM (inactive) | 61.5 µM (inactive) | > 100 µM (inactive) | > 100 µM (inactive) | 43.4 µM (inactive) | 64.6 µM (inactive) | 66.1 µM (inactive) | > 100 µM (inactive) | 82.8 µM (inactive) |  | 62.7 µM (inactive) | 
13 | CC(=O)c1ccc(/N=N/c2ccc3nonc3c2N)cc1 | > 100 µM (inactive) | > 100 µM (inactive) | > 100 µM (inactive) | > 100 µM (inactive) | > 100 | > 100 µM (inactive) | > 100 µM (inactive) | > 100 µM (inactive) | > 100 µM (inactive) | > 100 µM (inactive) | > 100 µM (inactive) | > 100 µM (inactive) | > 100 µM (inactive) | > 100 µM (inactive) | 88.3 µM (inactive) | > 100 µM (inactive) | > 100 µM (inactive) | > 100 µM (inactive) | 53.1 µM (inactive) | 
14 | COc1cccc(C2c3cc4c(cc3OC(N3CCCCC3)C2C)OCO4)c1OC (configuration not stated) | 5.14 µM (inactive) | 7.64 µM (inactive) | 15.3 µM (inactive) | 2.72 µM (inactive) | 3.37 | 17.9 µM (inactive) | 5.16 µM (inactive) | 4.85 µM (inactive) | 5.71 µM (inactive) | 14.3 µM (inactive) | 11.3 µM (inactive) | 4.42 µM (inactive) | 11.9 µM (inactive) |  | 4.15 µM (inactive) | 17.7 µM (inactive) | 12.6 µM (inactive) | 6.47 µM (inactive) | 16.5 µM (inactive) | 5.21 µM (inactive)
15 | NC(=O)CC(N)C(N)=O (configuration not stated) | > 100 µM (inactive) | > 100 µM (inactive) |  | > 100 µM (inactive) | > 100 | > 100 µM (inactive) | > 100 µM (inactive) | > 100 µM (inactive) | > 100 µM (inactive) | > 100 µM (inactive) | > 100 µM (inactive) | > 100 µM (inactive) | > 100 µM (inactive) | > 100 µM (inactive) | > 100 µM (inactive) |  | > 100 µM (inactive) | > 100 µM (inactive) | > 100 µM (inactive) | > 100 µM (inactive)
